Results from DBAASP.
Values after ≈ are worked out from the molar mass of the structure shown. Values joined by “and” are separate entries in the source; they are usually repeats but may differ in a detail not shown here. Identical values can stand only once. One block for each compound: values may come before it.

Key:
Assay in all cases: ≥ marks a high value that may be exact or a test limit, other limits are often not marked, values filed in µg/mL are converted to µM
[1] = system: Candida albicans NCYC 1467
[2] = system: Escherichia coli NCTC 10418
[3] = system: Pseudomonas aeruginosa ATCC 27853
[4] = system: Staphylococcus aureus ATCC 12493
[5] = system: Staphylococcus aureus NCTC 10788
[6] = system: Escherichia coli ATCC 25922
[7] = system: Escherichia coli KpC+001812446
[8] = system: Klebsiella pneumoniae ATCC 13883
[9] = system: Klebsiella pneumoniae KpC+001825971
[10] = system: Staphylococcus aureus ATCC 25923
[11] = system: Aspergillus flavus KCTC 6905
[12] = system: Candida albicans CCARM 14001
[13] = system: Candida albicans CCARM 14004
[14] = system: Candida albicans CCARM 14007
[15] = system: Candida albicans CCARM 14020
[16] = system: Candida albicans KCTC 7270
[17] = system: Candida krusei CCARM 14017
[18] = system: Candida parapsilosis CCARM 14016
[19] = system: Colletotrichum gloeosporioides KCTC 6169
[20] = system: Fusarium graminearum KCTC 16656
[21] = system: Fusarium oxysporum KCTC 16909
[22] = system: Fusarium solani KCTC 6326
[23] = system: Fusarium verticillioides KCTC 6149
[24] = system: Trichoderma virens KCTC 16924
[25] = system: Trichoderma viride KCTC 16992
[26] = system: Trichophyton rubrum KCTC 6345
Acinetobacter baumannii = system: Acinetobacter baumannii
Escherichia coli K88 = system: Escherichia coli K88
Escherichia coli K99 = system: Escherichia coli K99
Escherichia coli UB1005 = system: Escherichia coli UB1005
Escherichia coli = system: Escherichia coli
Klebsiella pneumoniae = system: Klebsiella pneumoniae
[27] = system: Pseudomonas aeruginosa CICC 21625
[28] = system: Pseudomonas aeruginosa CICC 21630
[29] = system: Pseudomonas aeruginosa PAO1
Pseudomonas aeruginosa = system: Pseudomonas aeruginosa
[30] = system: Salmonella enterica subsp. enterica serovar Pullorum C79-13
[31] = system: Salmonella enterica subsp. enterica serovar Typhimurium ATCC 14028
[32] = system: Salmonella enterica subsp. enterica serovar Typhimurium C77-31
Escherichia coli C600 = system: Escherichia coli C600
[33] = system: Staphylococcus aureus 209P
[34] = system: Escherichia coli BL21(DE3)

MIC [1]: ≥ 512 µM
MIC [2]: ≥ 128 µM
MIC [3]: > 512 µM
MIC [4]: ≥ 512 µM
MIC [5]: ≥ 128 µM
Compound: CC[C@H](C)[C@@H]1NC(=O)[C@H](CO)NC(=O)[C@H](CCCCN)NC(=O)[C@H]([C@@H](C)O)NC(=O)[C@H](Cc2c[nH]c3ccccc23)NC(=O)[C@@H](NC(=O)CNC(=O)[C@H](CCCN=C(N)N)NC(=O)[C@H](CC(C)C)NC(=O)[C@H](C)N)CSSC[C@@H](C(=O)N2CCC[C@H]2C(N)=O)NC(=O)[C@@H]2CCCN2C(=O)[C@H](CCCCN)NC(=O)[C@@H]2CCCN2C(=O)[C@@H]2CCCN2C1=O [ALRGCWTKSIPPKPCP]

MIC [6]: 0.789 µM (≈ 2 µg/mL)
MIC [7]: 0.789 µM (≈ 2 µg/mL)
MIC [8]: 0.789 µM (≈ 2 µg/mL)
MIC [9]: 6.31 µM (≈ 16 µg/mL)
MIC [10]: 25.2 µM (≈ 64 µg/mL)
Compound: CC[C@H](C)[C@H](NC(=O)[C@H](CCCCN)NC(=O)[C@H](CCCCN)NC(=O)[C@H](CC(C)C)NC(=O)[C@H](CO)NC(=O)CNC(=O)[C@H](CO)NC(=O)CNC(=O)[C@H](CO)NC(=O)CNC(=O)[C@H](CO)NC(=O)CN)C(=O)N[C@@H](Cc1ccccc1)C(=O)N[C@@H](CCCCN)C(=O)N[C@@H](CCCCN)C(=O)N1CCC[C@H]1C(=O)N[C@@H](CCSC)C(=O)N[C@H](C(=O)N[C@H](C(=O)NCC(=O)N[C@H](C(=O)N[C@H](C(=O)N[C@H](C(=O)N1CCC[C@H]1C(=O)N[C@@H](Cc1ccccc1)C(N)=O)[C@@H](C)CC)[C@@H](C)O)C(C)C)[C@@H](C)CC)C(C)C [GSGSGSGSLKKIFKKPMVIGVTIPF]

MIC [11]: 8 µM (≈ 12.7 µg/mL)
MIC [12]: ≥ 32 µM
MIC [13]: ≥ 32 µM
MIC [14]: ≥ 32 µM
MIC [15]: ≥ 32 µM
MIC [16]: ≥ 32 µM
MIC [17]: 4 µM (≈ 6.36 µg/mL)
MIC [18]: ≥ 32 µM
MIC [19]: 2 µM (≈ 3.18 µg/mL)
MIC [20]: 16 µM (≈ 25.5 µg/mL)
MIC [21]: 4 µM (≈ 6.36 µg/mL)
MIC [22]: 4 µM (≈ 6.36 µg/mL)
MIC [23]: 4 µM (≈ 6.36 µg/mL)
MIC [24]: 16 µM (≈ 25.5 µg/mL)
MIC [25]: 4 µM (≈ 6.36 µg/mL)
MIC [26]: 16 µM (≈ 25.5 µg/mL)
Compound: NCCCC[C@H](NC(=O)[C@H](CCCCN)NC(=O)[C@H](Cc1cnc[nH]1)NC(=O)[C@H](CCCCN)NC(=O)[C@H](CCCCN)NC(=O)[C@H](Cc1cnc[nH]1)NC(=O)[C@H](CCCCN)NC(=O)[C@H](CCCCN)NC(=O)[C@H](Cc1cnc[nH]1)NC(=O)[C@H](CCCCN)NC(=O)[C@H](CCCCN)NC(=O)[C@@H](N)Cc1cnc[nH]1)C(N)=O [HKKHKKHKKHKK]

MIC [11]: ≥ 256 µM
MIC [12]: ≥ 1020 µM
MIC [13]: ≥ 1020 µM
MIC [14]: ≥ 1020 µM
MIC [15]: ≥ 1020 µM
MIC [16]: ≥ 1020 µM
MIC [17]: ≥ 512 µM
MIC [18]: ≥ 1020 µM
MIC [19]: ≥ 1020 µM
MIC [20]: ≥ 512 µM
MIC [21]: ≥ 256 µM
MIC [22]: ≥ 256 µM
MIC [23]: ≥ 256 µM
MIC [24]: ≥ 512 µM
MIC [25]: ≥ 256 µM
MIC [26]: ≥ 512 µM
Compound: NCCCC[C@H](NC(=O)[C@H](CCCCN)NC(=O)[C@@H](N)Cc1cnc[nH]1)C(N)=O [HKK]

MIC (Acinetobacter baumannii): 4 µM (≈ 11.6 µg/mL)
MIC [6]: 2 µM (≈ 5.79 µg/mL)
MIC (Escherichia coli K88): 1 µM (≈ 2.89 µg/mL)
MIC (Escherichia coli K99): 2 µM (≈ 5.79 µg/mL)
MIC (Escherichia coli UB1005): 2 µM (≈ 5.79 µg/mL)
MIC (Escherichia coli): 2 µM (≈ 5.79 µg/mL)
MIC (Klebsiella pneumoniae): 16 µM (≈ 46.3 µg/mL)
MIC [3]: 8 µM (≈ 23.2 µg/mL)
MIC [27]: ≥ 64 µM
MIC [28]: ≥ 64 µM
MIC [29]: 8 µM (≈ 23.2 µg/mL)
MIC (Pseudomonas aeruginosa): > 64 µM
MIC [30]: 4 µM (≈ 11.6 µg/mL)
MIC [31]: 4 µM (≈ 11.6 µg/mL)
MIC [32]: 4 µM (≈ 11.6 µg/mL)
Compound: CC[C@H](C)[C@H](N)C(=O)N[C@@H](CCCN=C(N)N)C(=O)N1CCC[C@H]1C(=O)N[C@H](C(=O)N[C@H](C(=O)N[C@@H](CCCN=C(N)N)C(=O)N1CCC[C@H]1C(=O)N[C@H](C(=O)N[C@H](C(=O)N[C@@H](CCCN=C(N)N)C(=O)N1CCC[C@H]1C(=O)N[C@H](C(=O)N[C@H](C(=O)N[C@@H](CCCN=C(N)N)C(=O)N1CCC[C@H]1C(=O)N[C@H](C(=O)N[C@H](C(=O)N[C@@H](CCCN=C(N)N)C(=O)N1CCC[C@H]1C(=O)N[C@H](C(=O)N[C@H](C(=O)N[C@@H](CCCN=C(N)N)C(=O)N1CCC[C@H]1C(=O)N[C@H](C(N)=O)[C@@H](C)CC)[C@@H](C)CC)[C@@H](C)CC)[C@@H](C)CC)[C@@H](C)CC)[C@@H](C)CC)[C@@H](C)CC)[C@@H](C)CC)[C@@H](C)CC)[C@@H](C)CC)[C@@H](C)CC [IRPIIRPIIRPIIRPIIRPIIRPI]

MIC (Escherichia coli C600): 1.56 µM (≈ 3.6 µg/mL)
MIC [29]: 6.25 µM (≈ 14.4 µg/mL)
MIC [33]: 1.56 µM (≈ 3.6 µg/mL)
Compound: CC(C)[C@@H]1NC(=O)[C@H](CCCN=C(N)N)NC(=O)[C@H](Cc2ccccc2)NC(=O)[C@@H](NC(=O)[C@H](Cc2c[nH]c3ccccc23)NC(=O)[C@@H](N)CCCCN)CSSC[C@@H](C(=O)N[C@@H](CCCN=C(N)N)C(=O)O)NC(=O)[C@H](CCCN=C(N)N)NC(=O)[C@H](CCCN=C(N)N)NC(=O)[C@H](Cc2ccc(O)cc2)NC(=O)[C@@H]2CSSC[C@H](NC1=O)C(=O)N[C@@H](Cc1ccc(O)cc1)C(=O)N[C@@H](CCCN=C(N)N)C(=O)NCC(=O)N[C@@H](CCCN=C(N)N)C(=O)N2 [KWCFRVCYRGRCYRRCR]

MIC [34]: 8 µM and 4 µM
MIC [8]: 4 µM (≈ 6.65 µg/mL)
Compound: CC[C@H](C)[C@H](NC(=O)[C@H](CC(C)C)NC(=O)[C@H](CCCN=C(N)N)NC(=O)[C@@H](N)CCCN=C(N)N)C(=O)N[C@@H](CCCN=C(N)N)C(=O)N[C@@H](CC(C)C)C(=O)N[C@@H](Cc1c[nH]c2ccccc12)C(=O)N[C@@H](CC(C)C)C(=O)N[C@@H](CCCN=C(N)N)C(=O)N[C@@H](CC(C)C)C(=O)N[C@@H](CC(C)C)C(=O)N[C@@H](CCCN=C(N)N)C(N)=O [RRLIRLWLRLLR]
